Test results taken from US8202910B2 (Sequella, Inc., priority 2006, dated 2012).
In brackets after ≈: the same amount, converted by molar mass. Several values for one entry are separate records, joined by “and”; a condition that tells them apart may be missing. Equal values may be shown once. Entries after “also recorded” stand apart in the source; their conditions may differ.

Assays:
M. tuberculosis = test: Minimum Bactericidal Concentration (MBC); assay type: cell-based; details: Mycobacterium tuberculosis
Candida albicans = test: Spectrum of activity MIC, broth microdilution NCCLS M27-A2 (yeast); assay type: cell-based
Experimental: Compound 109 was tested against a representative panel of commonly encountered clinical microorganisms comprising opportunistic pathogens, target pathogens and normal human flora. The spectrum of activity of compound 109 was evaluated by performing recommended broth microdilution methods. NCCLS M27-A2, 2003 for yeast and NCCLS M38-A, 2003 for mold.

M. tuberculosis H37Rv = test: Two-drug combination growth inhibition, BACTEC 460, x/y quotient; assay type: cell-based; details: for interaction of SQ109 with isoniazid: both drugs at 0.5 MIC
[1] = Maximum tolerated dose, one-time gavage dose in mice; assay type: in vivo
Experimental: […] Each dose of each compound consisted of one group of 3 mice. Monitoring of the mice was done twice a day for the duration of the experiment. […] The MTD (mg/kg) is the highest dose that results in no lethality/tissue abnormality.
• 1. […] The compounds are dissolved in the appropriate concentration of ethanol in distilled water and administered in a volume of 0.2 ml per mouse. • 2. Observation of mice: Mice will be observed 4 and 6 hours post administration, then twice daily for one week. Survival and body weight of mice will be closely monitored throughout the study. • 3. […] Critical organs will be aseptically removed and observed; tissues from the liver, heart, and kidneys are extracted and placed into 10% formalin solution. These fixed tissues are sectioned and examined for abnormalities resulting from drug toxicity.

[2] = system: RIF^R M. tuberculosis isolate 2482; test: microbe, parasite or virus in culture; assay type: cell-based; details: Mycobacterium tuberculosis, read-out: MIC (BACTEC)
in vivo = test: in vivo; parameters: species or system mice; details: mouse
Experimental: Initially, analytical methods for determination of the compounds had been developed that allowed to carry out all the PK experiments, sec FIG. 29. Here is a brief description of the experiment: (1) plasma spiked with tested compounds and 10 uL of Terfenadine or plasma samples (200 uL) added; (2) ACN (2 mL) added to precipitate protein and spin at 2,500 rpm; (3) evaporate supernatant to dryness; (4) add 200 uL of the diluting solvent: methanol (with 0.1% of trifluoroacetic acid): ammonium acetate (80/20); (5) vortex, spin, and use supernatant; (6) run LC/MS/MS on Sciex API 3000.
Pilot PK study of the compounds 37, 59, and 109 in mice was conducted using a cassette dosing: all the three analogs were formulated together in saline at 1.5 mg/mL, and administered to mice simultaneously orally at 25 mg/kg, peritoneally at 6 mg/kg, and intravenously. […] Obtained data are presented on FIGS. 30, 31, and 32 (tested compounds were studied under the NCI′ indexation NSC) and summarized in Table 19.

M. tuberculosis [MTB] = test: Spectrum of activity MIC, BACTEC 460 TB system; assay type: cell-based; details: Mycobacterium tuberculosis
[3] = system: Propionibacterium acnes, Bacteroides fragilis, and Clostridium difficile; test: Spectrum of activity MIC (NCCLS), anaerobes; assay type: cell-based
Experimental: Compound 109 was tested against a representative panel of commonly encountered clinical microorganisms comprising opportunistic pathogens, target pathogens and normal human flora. The spectrum of activity of compound 109 was evaluated by performing antimicrobial susceptibility testing against a collection of aerobic and anaerobic bacteria, fungi, and mycobacteria. MICs for all organisms were established using the appropriate NCCLS (National Committee for Clinical Laboratory Standards) recommended standard methods and quality control strains.

[4] = system: M. chelonae group (M. chelonae and M. abscessus); test: Spectrum of activity MIC, rapid-grower, broth microdilution (NCCLS M24-A); assay type: cell-based; details: Mycobacteroides chelonae; three strains tested
[5] = sub-MIC concentrations, listed as SQ109

SMILES: CC(C)=CCC/C(C)=C/CNCCNC1C2CC3CC(C2)CC1C3 (stereo not drawn) [Compound 109, N-Geranyl-N′-(2-adamanthyl)ethane-1,2-diamine]
- MBC (M. tuberculosis): 0.313 µg/mL (≈ 0.947 µM)
- MIC (Candida albicans): 4 to 8 µg/mL (≈ 12.1 to 24.2 µM)
- growth inhibition of inoculum (M. tuberculosis H37Rv; 0.5 MIC SQ109 in combination with 0.1 MIC RIF): greater than 99%
- Synergy quotient (x/y) (M. tuberculosis H37Rv; SQ109 1/10 MIC + INH ½ MIC): 1
- Synergy quotient (x/y) (M. tuberculosis H37Rv; SQ109 1/10 MIC + MOX ½ MIC): 1
- Synergy quotient (x/y) (M. tuberculosis H37Rv; SQ109 1/10 MIC + MOX ⅕ MIC): 1
- Synergy quotient (x/y) (M. tuberculosis H37Rv; SQ109 1/10 MIC + RIF 1/10 MIC): 1
- Synergy quotient (x/y) (M. tuberculosis H37Rv; SQ109 1/10 MIC + RIF 1/20 MIC): 1
- Synergy quotient (x/y) (M. tuberculosis H37Rv; SQ109 1/10 MIC + RIF ¼ MIC): 1
- Synergy quotient (x/y) (M. tuberculosis H37Rv; SQ109 1/10 MIC + RIF ½ MIC): 0.16
- Synergy quotient (x/y) (M. tuberculosis H37Rv; SQ109 1/10 MIC + SM ½ MIC): 0.98
- Synergy quotient (x/y) (M. tuberculosis H37Rv; SQ109 1/20 MIC + INH ½ MIC): 1
- Synergy quotient (x/y) (M. tuberculosis H37Rv; SQ109 1/20 MIC + MOX ½ MIC): 1
- Synergy quotient (x/y) (M. tuberculosis H37Rv; SQ109 1/20 MIC + MOX ⅕ MIC): 1
- Synergy quotient (x/y) (M. tuberculosis H37Rv; SQ109 1/20 MIC + RIF 1/10 MIC): 1
- Synergy quotient (x/y) (M. tuberculosis H37Rv; SQ109 1/20 MIC + RIF 1/20 MIC): 1
- Synergy quotient (x/y) (M. tuberculosis H37Rv; SQ109 1/20 MIC + RIF ¼ MIC): 1
- Synergy quotient (x/y) (M. tuberculosis H37Rv; SQ109 1/20 MIC + RIF ½ MIC): 0.32
- Synergy quotient (x/y) (M. tuberculosis H37Rv; SQ109 1/20 MIC + SM ½ MIC): 1
- Synergy quotient (x/y) (M. tuberculosis H37Rv; SQ109 ½ MIC + INH ½ MIC): 0.45
- Synergy quotient (x/y) (M. tuberculosis H37Rv; SQ109 ½ MIC + MOX ½ MIC): 0.45
- Synergy quotient (x/y) (M. tuberculosis H37Rv; SQ109 ½ MIC + MOX ⅕ MIC): 0.51
- Synergy quotient (x/y) (M. tuberculosis H37Rv; SQ109 ½ MIC + RIF 1/10 MIC): 0.29
- Synergy quotient (x/y) (M. tuberculosis H37Rv; SQ109 ½ MIC + RIF 1/20 MIC): 0.61
- Synergy quotient (x/y) (M. tuberculosis H37Rv; SQ109 ½ MIC + RIF ¼ MIC): 0.23
- Synergy quotient (x/y) (M. tuberculosis H37Rv; SQ109 ½ MIC + RIF ½ MIC): 0.12
- Synergy quotient (x/y) (M. tuberculosis H37Rv; SQ109 ½ MIC + SM ½ MIC): 0.57
- Synergy quotient (x/y) (M. tuberculosis H37Rv; SQ109 ⅕ MIC + INH ½ MIC): 0.83
- Synergy quotient (x/y) (M. tuberculosis H37Rv; SQ109 ⅕ MIC + MOX ½ MIC): 0.96
- Synergy quotient (x/y) (M. tuberculosis H37Rv; SQ109 ⅕ MIC + MOX ⅕ MIC): 1
- Synergy quotient (x/y) (M. tuberculosis H37Rv; SQ109 ⅕ MIC + RIF 1/10 MIC): 1
- Synergy quotient (x/y) (M. tuberculosis H37Rv; SQ109 ⅕ MIC + RIF 1/20 MIC): 1
- Synergy quotient (x/y) (M. tuberculosis H37Rv; SQ109 ⅕ MIC + RIF ½ MIC): 0.4
- Synergy quotient (x/y) (M. tuberculosis H37Rv; SQ109 ⅕ MIC + SM ½ MIC): 0.74
- interaction of SQ109 with isoniazid (M. tuberculosis H37Rv; listed as SQ 109): strong synergistic activity
- interaction of SQ109 with isoniazid (M. tuberculosis H37Rv; listed as SQ109): synergy
- interaction of SQ109 with pyrazinamide (M. tuberculosis H37Rv; sub-MIC concentrations, PZA Test Medium, listed as SQ109): neither synergy nor additive effects; also recorded: did not show any positive interaction
- interaction of SQ109 with rifampicin (M. tuberculosis H37Rv; sub-MIC concentrations, listed as SQ 109): strong synergistic activity
- interaction of SQ109 with ethambutol (M. tuberculosis H37Rv; [5]): neither synergy nor additive effects; also recorded: did not show any positive interaction; also recorded: no interaction
- interaction of SQ109 with rifampicin (M. tuberculosis H37Rv; [5]): marked synergy
- interaction of SQ109 with streptomycin (M. tuberculosis H37Rv; [5]): additive effect; also recorded: only additive interaction
- Mice ([1]; 109 as HCl salt at 800 mg/kg, day 1): 3
- Mice ([1]; 109 as HCl salt at 800 mg/kg, day 2): 2/1
- Mice ([1]; 109 as HCl salt at 800 mg/kg, day 3): 1/1
- Mice ([1]; 109 as HCl salt at 800 mg/kg, day 4): 1
- Mice ([1]; 109 as HCl salt at 800 mg/kg, day 5): 1
- Mice ([1]; 109 as HCl salt at 800 mg/kg, day 6): 1
- Mice ([1]; 109 as HCl salt at 800 mg/kg, day 7): 1
- Day of death ([1]; 109 as HCl salt at 800 mg/kg, 800 mg/kg): 2 and 3
- Mice ([1]; 109 as TFA salt at 800 mg/kg, day 1): 1
- Mice ([1]; 109 as TFA salt at 800 mg/kg, day 2): 1
- Mice ([1]; 109 as TFA salt at 800 mg/kg, day 3): 1
- Mice ([1]; 109 as TFA salt at 800 mg/kg, day 4): 1
- Mice ([1]; 109 as TFA salt at 800 mg/kg, day 5): 1
- Mice ([1]; 109 as TFA salt at 800 mg/kg, day 6): 1
- Mice ([1]; 109 as TFA salt at 800 mg/kg, day 7): 1
- Mice ([1]; 109 at 100 mg/kg, day 1): 3
- Mice ([1]; 109 at 100 mg/kg, day 2): 3
- Mice ([1]; 109 at 100 mg/kg, day 3): 3
- Mice ([1]; 109 at 100 mg/kg, day 4): 3
- Mice ([1]; 109 at 100 mg/kg, day 6): 3
- Mice ([1]; 109 at 100 mg/kg, day 7): 3
- Mice ([1]; 109 at 300 mg/kg, day 1): 3
- Mice ([1]; 109 at 300 mg/kg, day 2): 3
- Mice ([1]; 109 at 300 mg/kg, day 3): 3
- Mice ([1]; 109 at 300 mg/kg, day 4): 3
- Mice ([1]; 109 at 300 mg/kg, day 6): 3
- Mice ([1]; 109 at 300 mg/kg, day 7): 3
- Mice ([1]; 109 at 600 mg/kg, day 1): 3
- Mice ([1]; 109 at 600 mg/kg, day 2): 3
- Mice ([1]; 109 at 600 mg/kg, day 3): 3
- Mice ([1]; 109 at 600 mg/kg, day 4): 3
- Mice ([1]; 109 at 600 mg/kg, day 6): 3
- Mice ([1]; 109 at 600 mg/kg, day 7): 3
- Mice ([1]; 109 at 1000 mg/kg, day 1): 3
- Mice ([1]; 109 at 1000 mg/kg, day 2): 2
- Mice ([1]; 109 at 1000 mg/kg, day 3): 2
- Mice ([1]; 109 at 1000 mg/kg, day 4): 1
- Mice ([1]; 109 at 1000 mg/kg, day 6): 0
- MTD at 1 week ([1]; female, C57BL/6, mouse, in vivo, po, one-time dose by gavage): 600 mg/kg
- changes in organs ([1]; mice surviving one week): No visible changes in organs
- fatal dose ([1]; one-time dose, two of 3 mice died within 3 days): 800 mg/kg
- MIC [2]: 0.32 µg/mL (≈ 0.968 µM)
- AUC (in vivo; ip, 6 mg/kg): 1100 ng·h/mL
- Cmax (in vivo; ip, 6 mg/kg): 935 ng/mL
- Urine excretion (%) (in vivo; ip, 6 mg/kg): <0.01%
- bioavailability (in vivo; ip, 6 mg/kg): 55%
- half-life (in vivo; ip, 6 mg/kg): 4.4 h
- AUC (in vivo; iv, 3 mg/kg): 1010 ng·h/mL
- Cmax (in vivo; iv, 3 mg/kg): 1190 ng/mL
- Urine excretion (%) (in vivo; iv, 3 mg/kg): .92%
- clearance (in vivo; iv, 3 mg/kg): 54 mL/min/kg
- half-life (in vivo; iv, 3 mg/kg): 5.5 h
- AUC (in vivo; po, 25 mg/kg): 655 ng·h/mL
- Cmax (in vivo; po, 25 mg/kg): 227 ng/mL
- bioavailability (in vivo; po, 25 mg/kg): 2.7%
- MIC (M. tuberculosis [MTB]): 0.25 to 0.5 µg/mL (≈ 0.756 to 1.51 µM)
- MIC [3]: 16 to 64 µg/mL (≈ 48.4 to 194 µM)
- MIC [4]: 16 µg/mL (≈ 48.4 µM)
